Key:
[1] = arterial blood pressure in the femoral artery (narcotized dogs, i.v.); assay type: in vivo; conditions: dog, 0.5 mg./kg. i.v., dihydrochloride
Description: (§1) With respect to the change in the oxygen tension in the coronary veinous blood, the pharmacological investigation of the vasodilator action on the coronary vessels was carried out in dogs according to the methods described by W.K.A. Schaper and his co-workers (see W.K.A. SCHAPER, R. XHONNEUX, and J.M. BOGAARD "Ueber die kontinuierliche Messung des Sauerstoffdruckes im venoesen Coronarblut" (Naunyn-Schmiedeberg's Arch. exp. Path. u. Pharmak. 245, 383-389 (1963)). The test preparations were applied intravenously to the narcotized and spontaneously breathing animals. On these test conditions the dilatation of the coronary arteries caused by the test substances along with the increase in the coronary blood flow led to an increase in the oxygen tension in the coronary veinous blood. This oxygen tension was measured according to polarographic methods by means of a platin electrode of the Gleichmann-Lubbers type (see U. GLEICHMANN and D.W. LUEBBERS "Die Messung des Sauerstoffdruckes in Gasen and Fluessigkeiten mit der Platin-Elektrode unter besonderer Berucksichtigung der Messung im Blut," Pflugers Arch. 271, 431-455 (1960)). The heart rate was continuously measured by electronic methods from systolic peaks of the arterial blood pressure. The arterial blood pressure was measured in the known manner in the femoral artery with the aid of an electromanometer of the Statham-strain-gauge type.
(§2) The following table gives the results of the pharmacological investigations which were carried through. The preparations were tested in the form of their respective dihydrochlorides: […]

[2] = tested on: coronary vessels; experiment: vasodilator action on the coronary vessels: change in the oxygen tension in the coronary veinous blood (narcotized dogs, i.v.); assay type: in vivo; conditions: dog, 0.5 mg./kg. i.v., dihydrochloride
Description: as §1, §2

[3] = heart rate, continuously measured from systolic peaks of the arterial blood pressure (narcotized dogs, i.v.); assay type: in vivo; conditions: dog, 0.5 mg./kg. i.v., dihydrochloride
Description: as §1, with “The arterial blood pressure was measured in the known manner in the femoral artery with the aid of an electromanometer of the Statham-strain-gauge type.” left out

[4] = LD 50 Mouse; conditions: in vivo, iv, dihydrochloride

SMILES	Maximal Change in the Blood Pressure (diastolic) ([1]; diastolic)	Maximal Change in the Blood Pressure ([1]; duration)	Maximal Change in the Blood Pressure (systolic) ([1]; systolic)	Maximal Increase in Oxygen Tension in the Coronary Veinous Blood [2]	Maximal Increase in Oxygen Tension in the Coronary Veinous Blood ([2]; duration)	Maximal Change in the Heart Rate [3]	Maximal Change in the Heart Rate ([3]; duration)	LD50 [4]
COc1ccc(CN2CCN(CC(Cc3c(C)c4ccc(OC)c(OC)c4oc3=O)OC(=O)c3cc(OC)c(OC)c(OC)c3)CC2)cc1OC (stereo not drawn) [3-[γ-(N-3,4-dimethoxy-benzyl-piperazino)-β-(3,4,5-trimethoxybenzoxy)-propyl]-4-methyl-7,8-dimethoxy-coumarin]	-66%	> 25 min	-57%	+60%	> 25 min	-20%	> 25 min	–
COc1cc(C(=O)OC(Cc2c(C)c3ccc(OC)c(OC)c3oc2=O)CN2CCN(CC(=O)Nc3c(C)cccc3C)CC2)cc(OC)c1OC (stereo not drawn) [3-[γ-{N-(2,6-dimethyl-anilidocarbonylmethyl)-piperazino}-β-(3,4,5-trimethoxybenzoxy)-propyl]-4-methyl-7,8-dimethoxy-courmarin]	–	–	–	+36%	> 20 min	–	–	> 400 mg/kg
